The subject of one assay is TE-8 cells. The experiment in a line: Cell growth inhibitory activity, TE-8 cells (Test Example 3). Format: cell-based. Particulars: Homo sapiens, 72 h, cultured for 3 days, CellTiter-Glo. The protocol: (§1) [Test Example 3] Evaluation of Cell Growth Inhibitory Activity
(§2) As a culture medium for each cell, a 10% FBS supplemented RPMI 1640 medium (for LK2 cells and TE-8 cells derived from human esophageal cancer) was used. LK2 cells were purchased from Human Science Research Resources Bank, and TE-8 cells were purchased from Riken Cell Bank. The compound of each of Examples 1 to 108b was prepared by dilution with Freedom EVO 150 (Tecan Trading AG) (4-fold diluted, 10 stages, 10 mM to 38 nM). The resultant was added to respective wells of a 384-well plate in an amount of 40 nL/well using Echo 555 (Labcyte Inc.). The LK2 or TE-8 cells were seeded in the plate at 400 cells/40 μL/well (day 0), and were cultured for 3 days. On the day of addition of the compound (day 0) and 3 days after the addition of the compound (day 3), an ATP measurement reagent of CellTiter-Glo (registered trademark) 2.0 Assay (Promega Corporation, #G9242) was added to each well in an amount of 10 μL/well, and the amount of luminescence of each well was measured using EnVision. Based on the amount of luminescence (C0) on the day of the addition of the compound, and the amounts of luminescence of a compound non-addition group (C3) and a compound addition group (T3) obtained after the 3-day culture of the compound, a cell survival rate was calculated in accordance with the following expression: Cell survival rate (%)=(T3−C0)/(C3−C0)×100
(§3) A concentration (GI50 value) of each compound at which the growth of the TE-8 or LK-2 cells was inhibited by 50% was calculated by semilogarithmically plotting the cell survival rate at each concentration and the compound concentration.

For the next assay, the target named is CREBBP (Homo sapiens, UniProt Q92793). In words: Histone acetyltransferase inhibitory activity against CREBBP (Test Example 1). Format: biochemical. Particulars: 125 ng/mL CREBBP, 2 μM Acetyl-CoA, 100 nM Histone H4(1-25)-GSGSK (Biotin), 28° C. for 1 hour. In short, it runs like this: (§4)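 Enzyme (50 ng/mL EP300 or 125 ng/mL CREBBP) incubated 1 h at 28° C with 2 μM acetyl-CoA, 100 nM biotinylated histone H4(1-25) peptide and 10 to 0.0006 μM compound in pH 8.0 Tris buffer with 330 nM trichostatin A, 1% DMSO. Reaction stopped with Lys-CoA; acetylation read by TR-FRET (Eu-anti pan-Ac/Sta-ULight) after overnight room-temperature incubation.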
Chain of CREBBP (Q92793 whole entry): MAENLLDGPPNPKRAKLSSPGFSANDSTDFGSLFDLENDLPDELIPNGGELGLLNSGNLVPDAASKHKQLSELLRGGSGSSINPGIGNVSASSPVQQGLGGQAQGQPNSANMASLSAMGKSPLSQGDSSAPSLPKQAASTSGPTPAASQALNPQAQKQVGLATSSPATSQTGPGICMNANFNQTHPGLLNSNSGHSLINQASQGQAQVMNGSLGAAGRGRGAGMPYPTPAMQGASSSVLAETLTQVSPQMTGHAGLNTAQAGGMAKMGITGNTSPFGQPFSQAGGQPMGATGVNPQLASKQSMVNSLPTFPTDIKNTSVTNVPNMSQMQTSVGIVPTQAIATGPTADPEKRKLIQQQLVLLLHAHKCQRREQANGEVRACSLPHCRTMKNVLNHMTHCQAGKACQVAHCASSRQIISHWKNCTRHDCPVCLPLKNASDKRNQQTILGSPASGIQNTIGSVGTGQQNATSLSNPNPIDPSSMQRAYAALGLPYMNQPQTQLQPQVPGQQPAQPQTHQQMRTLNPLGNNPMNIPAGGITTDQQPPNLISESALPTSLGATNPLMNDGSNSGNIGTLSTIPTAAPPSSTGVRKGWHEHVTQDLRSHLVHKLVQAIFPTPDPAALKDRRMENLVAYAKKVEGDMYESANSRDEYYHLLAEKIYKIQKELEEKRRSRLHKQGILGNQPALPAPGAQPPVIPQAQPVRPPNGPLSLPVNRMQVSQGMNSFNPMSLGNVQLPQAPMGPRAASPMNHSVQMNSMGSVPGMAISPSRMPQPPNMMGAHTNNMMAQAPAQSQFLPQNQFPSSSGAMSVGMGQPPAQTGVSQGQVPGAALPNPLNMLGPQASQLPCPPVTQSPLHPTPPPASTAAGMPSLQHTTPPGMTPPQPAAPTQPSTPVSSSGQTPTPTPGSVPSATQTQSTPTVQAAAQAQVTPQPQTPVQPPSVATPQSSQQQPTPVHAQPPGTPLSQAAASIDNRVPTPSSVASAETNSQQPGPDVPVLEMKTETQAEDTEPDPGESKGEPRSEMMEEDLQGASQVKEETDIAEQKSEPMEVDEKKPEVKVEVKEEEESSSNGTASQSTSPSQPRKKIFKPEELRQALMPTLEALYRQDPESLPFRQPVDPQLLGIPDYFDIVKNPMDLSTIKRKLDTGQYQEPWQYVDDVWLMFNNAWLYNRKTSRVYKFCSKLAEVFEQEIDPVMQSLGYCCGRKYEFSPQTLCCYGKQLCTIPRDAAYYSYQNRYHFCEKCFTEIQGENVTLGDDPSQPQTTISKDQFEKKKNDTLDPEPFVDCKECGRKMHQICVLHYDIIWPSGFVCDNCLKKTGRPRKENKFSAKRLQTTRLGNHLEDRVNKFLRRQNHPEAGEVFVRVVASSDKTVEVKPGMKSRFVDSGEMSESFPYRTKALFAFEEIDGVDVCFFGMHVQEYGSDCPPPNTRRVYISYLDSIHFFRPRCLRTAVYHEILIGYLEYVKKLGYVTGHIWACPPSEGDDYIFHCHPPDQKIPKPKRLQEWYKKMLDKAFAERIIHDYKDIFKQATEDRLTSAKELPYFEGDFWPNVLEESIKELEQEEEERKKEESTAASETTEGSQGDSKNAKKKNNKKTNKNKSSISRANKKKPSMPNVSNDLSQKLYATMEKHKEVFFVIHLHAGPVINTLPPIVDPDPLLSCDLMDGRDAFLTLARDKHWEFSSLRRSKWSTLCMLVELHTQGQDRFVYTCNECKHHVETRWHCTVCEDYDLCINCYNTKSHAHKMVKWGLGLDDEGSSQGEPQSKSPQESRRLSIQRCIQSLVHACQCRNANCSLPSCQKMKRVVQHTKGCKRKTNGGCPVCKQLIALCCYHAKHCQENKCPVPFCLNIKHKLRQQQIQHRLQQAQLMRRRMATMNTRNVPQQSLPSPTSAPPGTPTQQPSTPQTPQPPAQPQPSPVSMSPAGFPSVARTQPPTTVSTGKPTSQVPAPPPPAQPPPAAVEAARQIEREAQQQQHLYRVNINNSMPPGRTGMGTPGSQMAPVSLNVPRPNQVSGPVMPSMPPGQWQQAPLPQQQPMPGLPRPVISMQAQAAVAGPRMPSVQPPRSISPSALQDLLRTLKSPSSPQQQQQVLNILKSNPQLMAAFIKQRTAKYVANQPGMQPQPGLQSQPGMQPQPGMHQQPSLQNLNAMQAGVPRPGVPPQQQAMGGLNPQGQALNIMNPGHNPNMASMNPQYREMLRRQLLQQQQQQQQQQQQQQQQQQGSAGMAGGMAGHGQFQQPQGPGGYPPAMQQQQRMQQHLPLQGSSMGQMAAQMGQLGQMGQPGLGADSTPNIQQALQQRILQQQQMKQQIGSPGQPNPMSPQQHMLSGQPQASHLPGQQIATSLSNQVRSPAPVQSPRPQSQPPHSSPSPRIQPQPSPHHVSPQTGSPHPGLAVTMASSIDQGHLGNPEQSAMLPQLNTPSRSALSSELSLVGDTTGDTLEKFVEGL

Another assay has as its target EP300 (Homo sapiens, UniProt Q09472). The experiment in a line: Histone acetyltransferase inhibitory activity against EP300 (Test Example 1). In kind it is biochemical. The following applies: 50 ng/mL EP300, 2 μM Acetyl-CoA, 100 nM Histone H4(1-25)-GSGSK (Biotin), 28° C. for 1 hour. Put shortly: as §4
For a further assay, the system named is H3K27Ac. In words: Intracellular H3K27Ac inhibitory activity in LK2 cells (Test Example 2). The following applies: Homo sapiens, LK-2, cultured with compound for 3 hours, read-out: Test Example 2 H3K27Ac Inhibition (LK2) IC50. Format: cell-based. Put shortly:
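Human squamous lung cancer LK2 cells (40000/well) cultured overnight at 37 °C, 5% CO2 before treatment. After paraformaldehyde fixation, peroxide quench and blocking, H3K27 acetylation detected with anti-acetyl-H3K27 rabbit mAb (4 °C overnight) and HRP secondary; chemiluminescent read-out.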

In the next assay the test system is LK2 cells. In words: Cell growth inhibitory activity, LK2 cells (Test Example 3). Format: cell-based. The following applies: Homo sapiens, LK-2, 72 h, cultured for 3 days, CellTiter-Glo. The protocol:
as §1, §2, §3

A value given as a limit tells only on which side of the number the result lay.

Chain of EP300 (Q09472 whole entry): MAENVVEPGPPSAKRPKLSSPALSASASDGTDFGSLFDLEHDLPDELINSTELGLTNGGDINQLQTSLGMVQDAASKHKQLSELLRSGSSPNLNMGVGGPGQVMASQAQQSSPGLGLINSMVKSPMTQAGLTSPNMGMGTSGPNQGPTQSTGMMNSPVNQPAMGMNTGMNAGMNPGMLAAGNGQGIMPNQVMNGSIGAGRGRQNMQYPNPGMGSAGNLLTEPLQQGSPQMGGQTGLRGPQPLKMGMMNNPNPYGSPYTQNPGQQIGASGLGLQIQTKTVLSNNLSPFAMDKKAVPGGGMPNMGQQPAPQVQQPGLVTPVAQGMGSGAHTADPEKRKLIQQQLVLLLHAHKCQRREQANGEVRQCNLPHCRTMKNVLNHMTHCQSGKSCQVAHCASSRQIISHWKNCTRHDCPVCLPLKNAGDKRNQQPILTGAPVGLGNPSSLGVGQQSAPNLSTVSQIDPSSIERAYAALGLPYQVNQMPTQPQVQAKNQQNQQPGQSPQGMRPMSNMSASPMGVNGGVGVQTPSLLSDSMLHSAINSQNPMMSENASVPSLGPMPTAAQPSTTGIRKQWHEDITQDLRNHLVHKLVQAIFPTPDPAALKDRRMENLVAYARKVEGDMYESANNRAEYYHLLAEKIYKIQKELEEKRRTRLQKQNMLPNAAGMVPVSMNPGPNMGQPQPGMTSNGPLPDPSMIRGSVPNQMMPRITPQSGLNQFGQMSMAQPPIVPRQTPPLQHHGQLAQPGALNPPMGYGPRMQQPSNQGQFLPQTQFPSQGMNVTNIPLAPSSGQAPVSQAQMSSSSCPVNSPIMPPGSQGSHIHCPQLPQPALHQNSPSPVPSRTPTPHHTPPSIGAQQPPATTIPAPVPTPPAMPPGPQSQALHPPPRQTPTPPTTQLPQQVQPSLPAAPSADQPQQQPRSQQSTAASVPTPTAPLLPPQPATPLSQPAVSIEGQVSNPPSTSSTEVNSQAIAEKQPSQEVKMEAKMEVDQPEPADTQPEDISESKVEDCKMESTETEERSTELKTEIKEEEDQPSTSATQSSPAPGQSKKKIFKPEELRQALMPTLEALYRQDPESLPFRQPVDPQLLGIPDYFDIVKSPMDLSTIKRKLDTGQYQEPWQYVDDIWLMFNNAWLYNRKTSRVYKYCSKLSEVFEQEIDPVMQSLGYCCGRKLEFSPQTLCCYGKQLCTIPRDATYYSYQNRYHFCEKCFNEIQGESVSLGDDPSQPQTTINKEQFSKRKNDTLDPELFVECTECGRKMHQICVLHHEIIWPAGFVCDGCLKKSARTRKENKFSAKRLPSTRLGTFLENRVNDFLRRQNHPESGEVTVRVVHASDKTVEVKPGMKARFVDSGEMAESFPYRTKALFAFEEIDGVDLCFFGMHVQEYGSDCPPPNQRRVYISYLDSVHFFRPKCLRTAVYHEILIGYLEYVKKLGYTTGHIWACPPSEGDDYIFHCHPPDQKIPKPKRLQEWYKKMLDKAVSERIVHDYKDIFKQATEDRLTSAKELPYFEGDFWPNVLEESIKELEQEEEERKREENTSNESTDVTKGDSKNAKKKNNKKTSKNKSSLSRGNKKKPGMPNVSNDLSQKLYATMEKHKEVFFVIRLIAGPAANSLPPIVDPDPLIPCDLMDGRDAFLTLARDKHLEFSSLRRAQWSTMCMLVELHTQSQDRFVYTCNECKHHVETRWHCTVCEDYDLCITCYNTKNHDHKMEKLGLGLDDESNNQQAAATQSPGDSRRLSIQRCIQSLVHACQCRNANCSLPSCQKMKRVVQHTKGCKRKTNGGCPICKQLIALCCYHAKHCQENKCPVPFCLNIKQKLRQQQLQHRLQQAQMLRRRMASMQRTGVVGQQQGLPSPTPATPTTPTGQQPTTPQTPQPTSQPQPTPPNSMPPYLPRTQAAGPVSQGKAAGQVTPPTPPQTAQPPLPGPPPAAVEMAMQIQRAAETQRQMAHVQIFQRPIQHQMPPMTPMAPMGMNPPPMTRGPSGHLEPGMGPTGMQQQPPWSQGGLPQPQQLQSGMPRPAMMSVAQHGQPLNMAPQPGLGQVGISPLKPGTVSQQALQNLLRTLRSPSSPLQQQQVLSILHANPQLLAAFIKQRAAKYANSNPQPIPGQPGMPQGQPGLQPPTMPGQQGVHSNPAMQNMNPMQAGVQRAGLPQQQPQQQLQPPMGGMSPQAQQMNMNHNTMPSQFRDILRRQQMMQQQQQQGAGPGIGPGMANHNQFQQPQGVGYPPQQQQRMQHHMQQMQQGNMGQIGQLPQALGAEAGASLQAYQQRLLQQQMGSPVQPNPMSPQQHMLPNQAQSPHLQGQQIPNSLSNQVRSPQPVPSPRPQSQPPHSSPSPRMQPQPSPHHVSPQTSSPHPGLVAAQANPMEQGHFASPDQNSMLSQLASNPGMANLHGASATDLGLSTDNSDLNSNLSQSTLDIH

`COc1ccc(C2(C(=O)N3CS(=O)(=O)C[C@@H]3C(=O)Nc3ccc4[nH]ncc4n3)CCC(F)(F)CC2)cc1` [Example 68, (4S)-3-{[4,4-Difluoro-1-(4-methoxyphenyl)cyclohexyl]carbonyl}-N-(1H-pyrazolo[4,3-b]pyridin-5-yl)-1,3-thiazolidine-4-carboxamide 1,1-dioxide]: the GI50 with TE-8 cells came to 0.819 µM; with LK2 cells, 0.51 µM. In addition, the IC50 against CREBBP is 0.122 µM; at EP300, 0.049 µM; in the assay with H3K27Ac it was 0.042 µM.
In the same order, the values of `COc1ccc(C2(C(=O)N(C)[C@H](CCO)C(=O)Nc3ccc4[nH]ncc4n3)CCC(F)(F)CC2)cc1` [Example 69, 4,4-Difluoro-N-[(2R)-4-hydroxy-1-oxo-1-(1H-pyrazolo[4,3-b]pyridin-5-ylamino)butan-2-yl]-1-(4-methoxyphenyl)-N-methylcyclohexanecarboxamide] are 4.19 µM, 3.12 µM, 0.239 µM, 0.157 µM and 0.402 µM.
In the same order, the values of `COc1ccc(C2(C(=O)N3C[C@H](F)C[C@@H]3C(=O)Nc3cc4ccccn4n3)CCCCC2)cc1` [Example 70, (4R)-4-Fluoro-1-{[1-(4-methoxyphenyl)cyclohexyl]carbonyl}-N-pyrazolo[1,5-a]pyridin-2-yl-D-prolinamide] are 1.07 µM, 0.729 µM, 0.052 µM, 0.06 µM and 0.094 µM.
For the compound `COc1ccc(C2(C(=O)N3C[C@@H](O)C[C@@H]3C(=O)Nc3ccc4[nH]ncc4n3)CCCCC2)cc1` [Example 71, (4S)-4-Hydroxy-1-{[1-(4-methoxyphenyl)cyclohexyl]carbonyl}-N-1H-pyrazolo[4,3-b]pyridin-5-yl-D-prolinamide], the GI50 was 1.54 µM in the assay with TE-8 cells and 0.797 µM in the assay on LK2 cells. In addition, the IC50 came out at 0.094 µM against CREBBP, 0.099 µM at EP300 and 0.139 µM in the assay with H3K27Ac.
In the same order, the values of `COc1ccc(C2(C(=O)N(CCO)CC(=O)Nc3ccc4[nH]ncc4n3)CCC(F)(F)CC2)cc1` [Example 72, 4,4-Difluoro-N-(2-hydroxyethyl)-1-(4-methoxyphenyl)-N-[2-oxo-2-(1H-pyrazolo[4,3-b]pyridin-5-ylamino)ethyl]cyclohexanecarboxamide] are more than 10 µM, more than 10 µM, 0.182 µM, 0.177 µM and 1.15 µM.
Turning to `COc1ccc(C2(C(=O)N3CC[C@@H](O)[C@@H]3C(=O)Nc3ccc4[nH]ccc4n3)CCC(F)(F)CC2)cc1` [Example 74, (3R)-1-{[4,4-Difluoro-1-(4-methoxyphenyl)cyclohexyl]carbonyl}-3-hydroxy-N-1H-pyrrolo[3,2-b]pyridin-5-yl-D-prolinamide], the GI50 with TE-8 cells came out at 0.599 µM; with LK2 cells it was 0.271 µM. Moreover, the IC50 against CREBBP is 0.086 µM; against EP300, 0.058 µM; in the assay with H3K27Ac, 0.086 µM.
On to `COc1ccc(C2(C(=O)N3CC(=O)C[C@@H]3C(=O)Nc3ccc4[nH]ccc4n3)CCC(F)(F)CC2)cc1` [Example 75, 1-{[4,4-Difluoro-1-(4-methoxyphenyl)cyclohexyl]carbonyl}-4-oxo-N-1H-pyrrolo[3,2-b]pyridin-5-yl-D-prolinamide], for which the GI50 came out at 0.613 µM with TE-8 cells and 0.398 µM in the assay with LK2 cells. The IC50 at CREBBP was 0.077 µM; on EP300, 0.043 µM; in the assay on H3K27Ac, 0.067 µM.
Turning to `[2H]C([2H])([2H])N(C(=O)C1(c2ccc(OC)cc2)CCC(F)(F)CC1)[C@H](CO)C(=O)Nc1ccc2[nH]ncc2n1` [Example 76, 4,4-Difluoro-N-[(2R)-3-hydroxy-1-oxo-1-(1H-pyrazolo[4,3-b]pyridin-5-ylamino)propan-2-yl]-1-(4-methoxyphenyl)-N—(^2H3)methylcyclohexanecarboxamide], the GI50 in the assay with TE-8 cells was found to be 0.127 µM; with LK2 cells, 0.0689 µM. Moreover, the IC50 on CREBBP was 0.092 µM; against EP300 it was 0.043 µM; in the assay with H3K27Ac, 0.012 µM.
As to `[2H]C([2H])([2H])N(C(=O)C1(c2ccc(OC)cc2)CCC(F)(F)CC1)[C@H](CO)C(=O)Nc1ccc2[nH]ccc2n1` [Example 77, 4,4-Difluoro-N-[(2R)-3-hydroxy-1-oxo-1-(1H-pyrrolo[3,2-b]pyridin-5-ylamino)propan-2-yl]-1-(4-methoxyphenyl)-N—(^2H3)methylcyclohexanecarboxamide], the GI50 in the assay with TE-8 cells was 0.199 µM; with LK2 cells, 0.102 µM. Also, the IC50 at CREBBP came out at 0.053 µM; against EP300 it was 0.041 µM; with H3K27Ac, 0.015 µM.
In the same order, the values of `COc1ccc(C2(C(=O)N(C)[C@@H](C(=O)Nc3ccc4[nH]ncc4n3)[C@@H](C)O)CCC(F)(F)CC2)cc1` [Example 78, 4,4-Difluoro-N-[(2R,3R)-3-hydroxy-1-oxo-1-(1H-pyrazolo[4,3-b]pyridin-5-ylamino)butan-2-yl]-1-(4-methoxyphenyl)-N-methylcyclohexanecarboxamide] are 4.63 µM, 2.15 µM, 0.323 µM, 0.259 µM and 0.769 µM.
For the compound `COc1ccc(C2(C(=O)N3CS(=O)(=O)C[C@@H]3C(=O)Nc3ccc4[nH]c(C)cc4n3)CCC(F)(F)CC2)cc1` [Example 79, (4S)-3-{[4,4-Difluoro-1-(4-methoxyphenyl)cyclohexyl]carbonyl}-N-(2-methyl-1H-pyrrolo[3,2-b]pyridin-5-yl)-1,3-thiazolidine-4-carboxamide 1,1-dioxide], the GI50 in the assay on TE-8 cells was determined as 1.67 µM; in the assay with LK2 cells it was 1.39 µM. Further, the IC50 came out at 0.193 µM against CREBBP, 0.181 µM at EP300 and 0.268 µM with H3K27Ac.
In the same order, the values of `COc1ccc(C2(C(=O)N(C)[C@@H](C(=O)Nc3ccc4[nH]ncc4n3)[C@H](C)O)CCC(F)(F)CC2)cc1` [Example 80, 4,4-Difluoro-N-[(2R,3S)-3-hydroxy-1-oxo-1-(1H-pyrazolo[4,3-b]pyridin-5-ylamino)butan-2-yl]-1-(4-methoxyphenyl)-N-methylcyclohexanecarboxamide] are 0.277 µM, 0.141 µM, 0.091 µM, 0.078 µM and 0.017 µM.
Regarding `CC(C)(O)c1ccc(C2(C(=O)N3C[C@H](F)C[C@@H]3C(=O)Nc3ccc4[nH]ncc4n3)CCCCC2)cc1` [Example 81a, (4R)-4-Fluoro-1-({1-[4-(2-hydroxypropan-2-yl)phenyl]cyclohexyl}carbonyl)-N-1H-pyrazolo[4,3-b]pyridin-5-yl-D-prolinamide], the figures for the GI50 in the assay with TE-8 cells and in the assay on LK2 cells were 0.176 µM and 0.167 µM, respectively. The values for the IC50 at CREBBP, against EP300 and in the assay on H3K27Ac were 0.083 µM, 0.052 µM and 0.023 µM, respectively.
In the same order, the values of `COC(=O)c1ccc(C2(C(=O)N3C[C@H](F)C[C@@H]3C(=O)Nc3ccc4[nH]ncc4n3)CCCCC2)cc1` [Example 81b, methyl 4-(1-{[(2R,4R)-4-Fluoro-2-(1H-pyrazolo[4,3-b]pyridin-5-ylcarbamoyl)pyrrolidin-1-yl]carbonyl}cyclohexyl)benzoate] are 0.258 µM, 0.231 µM, 0.064 µM, 0.041 µM and 0.016 µM.
In the same order, the values of `O=C(Nc1ccc2[nH]ncc2n1)[C@H]1C[C@@H](F)CN1C(=O)C1(c2ccc(O)cc2)CCCCC1` [Example 82, (4R)-4-Fluoro-1-{[1-(4-hydroxyphenyl)cyclohexyl]carbonyl}-N-1H-pyrazolo[4,3-b]pyridin-5-yl-D-prolinamide] are 0.0893 µM, 0.0751 µM, 0.021 µM, 0.012 µM and 0.013 µM.

The values above are taken from patent US11274100B2, “EP300/CREBBP inhibitor” (Daiichi Sankyo Company, Limited, priority 2017, dated 2022).
